Key:
[1] = test system: biofilm formation by G. vaginalis ATCC 14018; assay: Inhibition of biofilm formation (MIC-B, crystal violet staining, checkerboard); type: cell-based, Gardnerella vaginalis; conditions: for MIC: Gardnerella vaginalis, ATCC14018, read-out: MIC-B90
Method: Combinations of boric acid with metronidazole or tinidazole were tested in vitro in a non-planktonic, biofilm model for inhibition of biofilm formation by G. vaginalis (ATCC strain 14018).
Bacterial strain, culture media and growth conditions: From the frozen stock (−80° C.), G. vaginalis ATCC 14018 was inoculated in three culture media and propagated at 37° C. for 48 h. Brain-heart infusion (BHI) broth (Difco BD, Franklin, NJ, USA) supplemented with horse serum 3% (JRH Biosciences, KS) was used to maintain microbial growth. […] (HBT) agar (Remel, Lenexa, KS, USA) was used to confirm the purity of the frozen stock. The inoculated broth and HBT agar were incubated anaerobically (10% hydrogen, 5% carbon dioxide and 85% nitrogen) using an anaerobic gloves box (Coy Laboratory Products, Inc., Grass Lake, MI, USA). After the incubation period, the bacterial cells were transferred to BHI broth supplemented with 1% glucose (Fisher Scientific, Waltham, MA, USA) (BHIG), every 24 h twice prior to the initiation of an experiment. In order to provide suitable conditions for G. vaginalis anaerobic growth and to avoid oxidative stress, culture media were pre-incubated in the anaerobic chamber at least overnight before bacterial inoculation.
Stock solutions of antibacterial agents: Antimicrobials were evaluated for their activity against biofilm-associated G. vaginalis. Metronidazole was purchased from Alfa Aesar (Ward Hill, Massachusetts, USA). Metronidazole was prepared as a stock solution of 10 mg mL^−1 in ddH2O. Tinidazole was purchased from TCI America (Portland, OR, USA). Tinidazole was prepared as a stock solution of 10 mg/ml in DMSO. Boric acid was purchased from Fisher Chemical (Hampton, NH, USA). A fresh 1 mg mL^−1 boric acid solution in BHIG was prepared at the beginning of each experiment within the anaerobic chamber, and mixed with BHIG that had been in the anaerobic chamber overnight (to avoid oxidative stress). The stock solutions of antimicrobials were sterilized using syringe filter 0.45 μm and kept in the refrigerator for a maximum of 3 weeks. On the day of the experiment, the stock solutions were diluted in the anaerobic chamber (to avoid oxidative stress) with pre-incubated BHIG broth to avoid changing the concentrations of nutrients of growth media.
Determination of minimum biofilm inhibitory concentrations (MICs-B): MIC determination was performed according to Sutyak et al. (Antimicrob Agents, Ch 56: 1756-61, 2012) with minor modifications. Each agent was diluted two-fold with BHIG broth into two separate 96-well non-tissue culture microplates. From each dilution of boric acid, 50 μl was added horizontally over 50 μl of metronidazole or tinidazole. The final volume of antimicrobial agents diluted into the broth was 100 μL in each well. The overnight cell culture at 3±2×10^8 CFU mL^−1 was diluted in BHIG to a final concentration of 5×10^6 CFU mL^−1. From the diluted bacterial cells, 100 μL was transferred into the wells containing predetermined concentrations of antimicrobials. Sterile sealing tape (Thermo Fisher Scientific, Rochester, NY) was used to prevent evaporation. The 96-well plate was then incubated anaerobically at 37° C. for 48 h. After incubation, the biofilm was stained using 0.1% crystal violet as described by Algburi et al. (Antimicrob Agents, Ch. 61: e00650-17, 2017); Weeks et al. (Pathog Dis 77(8):ftz059, 2019; doi: 10.1093/femspd/ftz059).
Biofilm staining using CV: Biofilm staining using CV was performed as described by Borucki et al. (Appl Environ Microbiol, 69(12):7336-42, 2003, doi: 10.1128/AEM.69.12.7336-7342.2003) with minor modifications. Briefly, after counting of the non-adherent cells, the biofilm was fixed at 60° C. for 60 minutes in an inverted position in an incubator (New Brunswick Scientific Co., Inc., NJ, USA). To each well, 125 μl of 0.1% CV was added and left at room temperature for 20 minutes.

[2] = test system: G. vaginalis ATCC 14018 planktonic cells; assay: Checkerboard assay / MIC against planktonic cells; type: cell-based; conditions: Gardnerella vaginalis, ATCC14018; agent alone, planktonic G. vaginalis 14018, 24 h anaerobic, 37° C.; read-out: minimal inhibitory concentration (MIC)
Method: From each dilution of boric acid, 50 μl was added horizontally over 50 μl of metronidazole or tinidazole.
The FIC index (FICI) for the combination of two agents is the sum of their individual FIC values.

[3] = concentration needed to inhibit 90% of biofilm, agent alone

In the case of `OB(O)O` [boric acid], the MIC [1, 3] is reported as 2.5 µg/mL, the MIC-B90 [1, 3] is reported as 0.25 % m/v and the “Biofilm mass as a percentage of an untreated control” value (“Biofilm mass as a percentage” for short) ([1]; well A10: boric acid 0.5 m/v alone (metronidazole 0)) is reported as −2%. For the same compound, the “Biofilm mass as a percentage” value ([1]; well A10: boric acid 0.5 m/v alone (tinidazole 0)) was −1%, the “Biofilm mass as a percentage” value ([1]; well B10: boric acid 0.25 m/v alone (metronidazole 0)) was −1% and the “Biofilm mass as a percentage” value ([1]; well B10: boric acid 0.25 m/v alone (tinidazole 0)) was 0%. For the same compound, the “Biofilm mass as a percentage” value ([1]; well C10: boric acid 0.125 m/v alone (metronidazole 0)) was 85%, the “Biofilm mass as a percentage” value ([1]; well C10: boric acid 0.125 m/v alone (tinidazole 0)) was 63% and the “Biofilm mass as a percentage” value ([1]; well D10: boric acid 0.0625 m/v alone (metronidazole 0)) was 95%. For the same compound, the “Biofilm mass as a percentage” value ([1]; well D10: boric acid 0.0625 m/v alone (tinidazole 0)) was 88%, the “Biofilm mass as a percentage” value ([1]; well E10: boric acid 0.03125 m/v alone (metronidazole 0)) was 92% and the “Biofilm mass as a percentage” value ([1]; well E10: boric acid 0.03125 m/v alone (tinidazole 0)) was 93%. The “Biofilm mass as a percentage” value ([1]; well F10: boric acid 0.015625 m/v alone (metronidazole 0)) was 100%, the “Biofilm mass as a percentage” value ([1]; well F10: boric acid 0.015625 m/v alone (tinidazole 0)) was 95% and the “Biofilm mass as a percentage” value ([1]; well G10: boric acid 0.007813 m/v alone (metronidazole 0)) was 101%. For the same compound, the “Biofilm mass as a percentage” value ([1]; well G10: boric acid 0.007813 m/v alone (tinidazole 0)) was 98% and the MIC [2] was 1.25 µg/mL.

With `Cc1ncc([N+](=O)[O-])n1CCO` [metronidazole] the MIC [1, 3] was 25 µg/mL, the “Biofilm mass as a percentage” value ([1]; well H1: metronidazole 25 μg/ml alone (boric acid 0)) was 0% and the “Biofilm mass as a percentage” value ([1]; well H2: metronidazole 12.5 μg/ml alone (boric acid 0)) was 11%. For the same compound, the “Biofilm mass as a percentage” value ([1]; well H3: metronidazole 6.25 μg/ml alone (boric acid 0)) was 61%, the “Biofilm mass as a percentage” value ([1]; well H4: metronidazole 3.125 μg/ml alone (boric acid 0)) was 73% and the “Biofilm mass as a percentage” value ([1]; well H5: metronidazole 1.5625 μg/ml alone (boric acid 0)) was 88%. For the same compound, the “Biofilm mass as a percentage” value ([1]; well H6: metronidazole 0.78125 μg/ml alone (boric acid 0)) was 96%, the “Biofilm mass as a percentage” value ([1]; well H7: metronidazole 0.390625 μg/ml alone (boric acid 0)) was 95% and the “Biofilm mass as a percentage” value ([1]; well H8: metronidazole 0.195313 μg/ml alone (boric acid 0)) was 123%. The “Biofilm mass as a percentage” value ([1]; well H9: metronidazole 0.09765625 μg/ml alone (boric acid 0)) was 100% and the MIC [2] was 6.25 µg/mL.

In the case of `CCS(=O)(=O)CCn1c([N+](=O)[O-])cnc1C` [tinidazole], the MIC [1, 3] is reported as 25 µg/mL, the “Biofilm mass as a percentage” value ([1]; well H1: tinidazole 25 μg/ml alone (boric acid 0)) is reported as 6% and the “Biofilm mass as a percentage” value ([1]; well H2: tinidazole 12.5 μg/ml alone (boric acid 0)) is reported as 15%. For the same compound, the “Biofilm mass as a percentage” value ([1]; well H3: tinidazole 6.25 μg/ml alone (boric acid 0)) was 33%, the “Biofilm mass as a percentage” value ([1]; well H4: tinidazole 3.125 μg/ml alone (boric acid 0)) was 104% and the “Biofilm mass as a percentage” value ([1]; well H5: tinidazole 1.5625 μg/ml alone (boric acid 0)) was 133%. For the same compound, the “Biofilm mass as a percentage” value ([1]; well H6: tinidazole 0.78125 μg/ml alone (boric acid 0)) was 134%, the “Biofilm mass as a percentage” value ([1]; well H7: tinidazole 0.390625 μg/ml alone (boric acid 0)) was 88% and the “Biofilm mass as a percentage” value ([1]; well H8: tinidazole 0.195313 μg/ml alone (boric acid 0)) was 92%. The “Biofilm mass as a percentage” value ([1]; well H9: tinidazole 0.09765625 μg/ml alone (boric acid 0)) was 95% and the MIC [2] was 1.56 µg/mL.
